Measured values as given in patent US5919785A, “Inhibitors of farnesyl-protein transferase” (Merck & Co., Inc., priority 1997, dated 1999).
Structures can show the parent of a compound that is named as a salt. Where two headings read alike, the source gives them in different places.

Target: T1, human FPTase (Homo sapiens, UniProt P49354+P49356)
T1 construct: made in house
Test: In vitro inhibition of ras farnesyl transferase (human FPTase assay)
Format: biochemical
Experimental: Assays of farnesyl-protein transferase. […] Reactions were initiated with FPTase and stopped with 1 ml of 1.0 M HCL in ethanol. Precipitates were collected onto filter-mats using a TomTec Mach HI cell harvester, washed with 100% ethanol, dried and counted in an LKB β-plate counter. […] Purified compounds were dissolved in 100% dimethyl sulfoxide (DMSO) and were diluted 20-fold into the assay. Percentage inhibition is measured by the amount of incorporation of radioactivity in the presence of the test compound when compared to the amount of incorporation in the absence of the test compound. […] Human FPTase activity was assayed as described above with the exception that 0.1% (w/v) polyethylene glycol 20,000, 10 μM ZnCl2 and 100 nM Ras-CVIM were added to the reaction mixture. Reactions were performed for 30 min., stopped with 100 μl of 30% (v/v) trichloroacetic acid (TCA) in ethanol and processed as described above for the bovine enzyme.

| SMILES | IC50 [µM] | IC50 (human FPTase, [3H]-FPP, 100 nM Ras-CVIM, 30 min, read-out: IC50, inhibitory activity against human FPTase) [µM] |
| --- | --- | --- |
| N#Cc1ccc(Cn2cncc2CN2CC(=O)N(c3ccccc3)CC2=O)cc1 [Example 4, 4-[1-(4-cyanobenzyl)-5-imidazolylmethyl]-1-phenylpiperazine-2,5-dione hydrochloride] | ≤ 50 |  |
| N#Cc1ccc(Cn2cncc2CN2CC(=O)N(Cc3ccccc3)CC2=O)cc1 [Example 5, 4-benzyl-1-[1-(4-cyanobenzyl)-5-imidazolylmethyl]-piperazine-2,5-dione hydrochloride] |  | ≤ 50 |
